Laboratory results from patent US6617337B1, “Use of nitroxides for the treatment of essential hypertension” (Georgetown University, priority 1997, dated 2003).
Where “and” joins values, the source holds several entries; their conditions need not be identical. Identical values can stand only once.

Tested on: SHR and WKY rats
Assay: Two weeks of oral Tempol in the drinking water: MAP, HR, renal hemodynamics, excretion, 8-ISO
Assay type: in vivo, rat
Details: Tempol 1 mM in drinking water
Procedure: Thereafter, WKY and SHR were anesthetized with thiobutabarbital (100 mg/kg, i.p., Inactin, Research Biochemicals International) and maintained at 37° C. on a servo-controlled heated rodent operating table. A tracheostomy was performed with polyethylene PE-240 tubing and the left jugular vein and carotid artery were cannulated with PE-50 tubing. A 1% albumin solution in 0.154 M NaCl was infused at 2 ml/h, i.v. to maintain a euvolemic state. A midline incision was made and the left renal artery was isolated. A blood flow probe was placed around the renal artery and connected to a transit-time blood flowmeter (IRB, Transonic Systems, Inc.). We have previously shown that this method of measuring real-time changes in renal blood flow (RBF) is valid in the rat. Mean arterial pressure (MAP) and heart rate (HR) were continuously recorded from the carotid artery using a Statham pressure transducer (model P23, Gould Instruments) and MACLab data acquisition software. Glomerular filtration rate (GFR) was determined from the clearance of [^3H]-inulin. Following surgery and a 60 min equilibration period, MAP, HR, GFR, and RBF were measured over 30 minutes and the data was averaged.

CC1(C)CC(O)CC(C)(C)N1[O] [Tempol, 4-hydroxy-2,2,6,6-tetramethyl-1-piperidinyloxy]
RBF (SHR, 2 weeks): 5.6 ± 0.5 mL/min
RVR (SHR, 2 weeks): 26.4 ± 2.6 mm Hg/ml/min
UNaV (SHR, 2 weeks): 2.1 ± 0.2 mmol/24 hr
UV (SHR, 2 weeks): 15.2 ± 1.7 ml/24 hr
Decrease in RVR (tendency, not significant) (SHR, two weeks): 16%
GFR (SHR, two weeks): 1.9 ± 0.3 mL/min and 2.0 ± 0.2 mL/min
Heart rate (SHR, two weeks): 414±9 bts/min
Increase in GFR (SHR, two weeks): 17%
MAP (SHR, two weeks): 134±6 mm Hg
UV8-ISO (8-iso-prostaglandin F2α excretion) (SHR, two weeks): 6.0±0.7 ng/24 hr
Decrease in MAP compared to normal SHR (SHR, two weeks, p<0.05): 18%
Decrease in UV8-ISO (8-iso-prostaglandin F2α excretion) (SHR, two weeks, p<0.05): 39%
Body weight gain (2 weeks, WKY and SHR pooled): 66±3 g/14 days
Food intake (2 weeks, WKY and SHR pooled): 24 ± 1 g/day
Water intake (2 weeks, WKY and SHR pooled, p<0.05 vs control): 43 ± 3 mL/day
GFR (WKY, 2 weeks): 2.5 ± 0.4 mL/min
RBF (WKY, 2 weeks): 8.8 ± 0.9 mL/min
RVR (WKY, 2 weeks): 14.2 ± 1.4 mm Hg/ml/min
UNaV (WKY, 2 weeks): 2.4 ± 0.6 mmol/24 hr
UV (WKY, 2 weeks): 16.7 ± 2.3 ml/24 hr
Heart rate (WKY, two weeks): 373±8 bts/min
MAP (WKY, two weeks): 118±7 mm Hg
